Measured values: article PMC9841531, “Indole Derivatives as New Structural Class of Potent and Antiproliferative Inhibitors of Monocarboxylate Transporter 1 (MCT1; SLC16A1)” (Journal of Medicinal Chemistry, 2022)

Legend:
A-549 cells = experiment: cell cycle distribution analysis, PI flow cytometry; type: cell-based; conditions: 5 μM, 24 h
Description: The antineoplastic agent 33 (5 μM) was used as a reference. […] Compound 24 caused a disruption of the cell cycle of A-549 cancer cells, indicated by a shift from the predominant G0/G1 phase (Figure 8A) to the apoptotic sub-G1 phase as well as the G2/M phase (Figure 8B). A similar G2/M arrest could be observed for reference compound 33 (Figure 8C); however, MCT1 inhibitor 24 led to a larger fraction of cells into the sub-G1 phase, indicating induced apoptosis. This experiment discovered that compound 24 inhibits cell proliferation, causing cell cycle arrest and, eventually, apoptosis. To confirm our findings, we conducted an apoptosis assay using compound 24.
A standard PI staining procedure was used as described earlier[44]−[46] to determine the effect of compounds 24 and 33 on cell cycle progression, followed by flow cytometry analysis (FACS Aria SORP and FACS Aria Fusion, BD Biosciences, Franklin Lakes, NJ). In brief, A-549 cells were seeded onto a 6-well plate (250,000 cells/well) and incubated for 24 h at 37 °C under a 5% CO2-humidified atmosphere before being observed under a microscope. The cells were treated with compound 24 (5 μM) or 33 (5 μM) and further incubated for 24 h at 37 °C under a 5% CO2-humidified atmosphere. Then, the cells were harvested and washed twice with cold PBS (Genetix Biotech Asia, New Delhi, India) before being fixed overnight in ice-cold 70% (v/v) ethanol at 4 °C. The cells were again washed two times with PBS and subsequently resuspended with RNase (100 μg/mL; HiMedia, Mumbai, India) and their DNA was stained with PI (40 μg/mL; Sigma-Aldrich, Mumbai, India) before being incubated in the dark for 10 min. The DNA content was measured at the Indian Institute of Technology Bombay (IITB, Mumbai, India) by applying flow cytometry.

[1] = tested on: ABCB1-expressing A2780/ADR cells; experiment: MTT-based efficacy (MDR-reversal) assay, 33 in combination with test compound, A2780/ADR; type: cell-based; conditions: A2780 ADR; 33 alone, 72 h; read-out: A2780/ADR cell toxicity 33 + 0.0 μM cmpd. GI50 ± SEM
Description: (§1) This sensitization is indicated by a shift of the concentration-effect curve of compound 33 from the right (=high concentrations of 33 needed to induce A2780/ADR cell death) to the left (=lower concentrations of 33 needed to induce A2780/ADR cell death). The concentration-effect curve of compound 33 in combination with 5 μM of either compound 24 or 30 resembles the concentration-effect curve of the sensitive cell line A2780. […] Thus, their potentiating effect with respect to the antiproliferative agent 33 against ABCB1-expressing A2780/ADR cells is due to the inhibition of ABCB1. Therefore, compounds 24 and 30 were dually effective against MCT1- and ABCB1-expressing cells (Table 5).
(§2) An MDR-reversal assay[2],[55]−[59] was used to investigate the ability to reverse ABCB1-mediated MDR in A2780/ADR cells toward the cytotoxic ABCB1 substrate 33. […] A dilution series of 33 at concentrations between 0.1 μM and 100 μM was generated, and 20 μL of each concentration was transferred onto the plates (final concentration: 0.01–10 μM). The plates were incubated for 72 h at 37 °C and a 5% CO2-humidified atmosphere, before subsequent processing with the regular MTT assay as described above. The observed effects of compounds 24 and 30 were compared to the effect of 33 alone on A2780/ADR cells as well as its sensitive counterpart A2780 (∼10,000 cells/well).

[2] = tested on: MCT1-expressing A-549 cells; experiment: MTT-based efficacy assay, 33 in combination with test compound, A-549; type: cell-based; conditions: Homo sapiens, A549; 33 alone, 72 h; read-out: A-549 cell toxicity 33 + 0 nM test cmpd. GI50 ± SEM
Description: MCT1 inhibition anticipates challenging cancer cell energy supply and, thus, increases the efficacy of anticancer agents.
For this purpose, 10 μL of compounds 24 or 30 (50 nM, 100 nM, or 500 nM) was transferred onto a colorless flat-bottom 96-well microplate and complemented with 180 μL of a cell suspension containing either approximately 5,000 A-549 cells. A dilution series of compound 33 at concentrations between 50 nM and 50 μM was generated, and 10 μL of each concentration was transferred onto the plate. The observed effects of compounds 24 and 30 were compared to the effect of compound 33 alone on A-549. The plates were incubated for 72 h at 37 °C and a 5% CO2-humidified atmosphere, before subsequent processing with the regular MTT assay as described above.[43]

A2780 cells = experiment: MTT-based cell toxicity of 33 on sensitive A2780 cells; conditions: Homo sapiens, 33 alone, 72 h, read-out: A2780 cell toxicity 33 + 0.0 μM cmpd. GI50 ± SEM
Description: as §1, §2

SMILES: COc1cccc2c1C(=O)c1c(O)c3c(c(O)c1C2=O)C[C@@](O)(C(=O)CO)C[C@@H]3O[C@H]1C[C@H](N)[C@H](O)[C@H](C)O1 [Compound 33, doxorubicin, reference compound]
- cells in G0/G1 phase (A-549 cells): 41.1%
- cells in G2/M phase (A-549 cells): 26.2%
- cells in S phase (A-549 cells): 27.4%
- cells in Sub-G1 phase (A-549 cells): 4.00%
- GI50 [1]: 802 ± 81 nM
- GI50 [2]: 47.6 ± 0.7 nM
- GI50 (A2780 cells): 19.4 ± 1.7 nM
